Results: patent US20130244875A1, “METHODS AND COMPOSITIONS FOR IMPROVING PLANT HEALTH” (priority 2006, published 2013)
Like-named read-outs stand apart in the source and are kept apart here.

How the values were obtained:
[1] = system: PR-2, i.e., β-1,3-glucanase; test: Induction of PR2 (northern blot) in DMO soybean sprayed with dicamba or DCSA; assay type: in vivo
Experimental: A 14 hour minimum photoperiod was provided with supplemental light at about 600 μE (micro-Einsteins) as needed. Trials were established in a randomized block design randomized by rate with 4 to 6 replications of each treatment.
All herbicide applications were made with the track sprayer using a Teejet® 9501E flat fan nozzle (Spraying Systems Co, Wheaton, Ill.) with air pressure set at a minimum of 24 psi (pounds per square inch), or 165 kpa (kilopascals)). The spray nozzle was kept at a height of about 16 inches above the top of plant material for spraying. The spray volume was 10 gallons per acre or 93 liters per hectare. Applications were made when plants had reached V-3 stage.
Events carrying a DMO transgene in their genome were grown and treated with dicamba (Clarity®, BASF) at 1 lb/Acre at Post-V3 stage. Leaf samples were harvested after 0, 3, 8, 24, 48, 72 hrs after treatment (HAT) and frozen for further analysis. In another experiment, DMO-containing plants were sprayed with either dicamba or DCSA at 0.25, 0.5 and 1 lb/Acre rate and tissue samples were collected 24 HAT. RNA was extracted and analyzed by northern blot analysis using PR-2, i.e., β-1,3-glucanase as a probe. PR-2 is a pathogenesis-related protein known to degrade […] and thus provide protection against fungal pathogens (U.S. Pat. No. 5,670,706 and Uknes et al., 1992).

[2] = 24 hours at 30° C., RP-HPLC
Experimental: Leaf strip and whole plant studies were performed using liquid chromatography assays to determine metabolism of dicamba to DCSA in soybeans. Leaf tissue was removed from wild-type soybean plants and soybean plants transgenic for the DMO gene and were cut into 1 mm strips, the strips then incubated in 25 mM Tris pH 7.5 with radiolabeled dicamba (14C dicamba) for 24 hours at 30° C. After incubation, the leaf tissue was homogenized with a spinning pestle, acidified, solids pelleted by centrifugation and an aliquot of the supernatant analyzed by RP-HPLC equipped with a radiation detector.

[3] = system: transgenic soybean; test: Soybean yield field trials with dicamba treatments
Experimental: The yield enhancing-benefit of DSCA was tested by growing non-transgenic and transgenic plants and applying dicamba to transgenic plants and harvesting the seeds. Non-transgenic and transgenic soybean seeds were planted near the beginning of the growing season in several locations at the time of best possible growth conditions such as soil moisture, temperature, and seeding depth. Across all locations seeds were planted under split-plot design with dicamba treatments as whole-plot effects and events as split-plot effects. The design details were as follows: 6 locations, 2 replications/location, 2 rows/plot, row length 12 feet (+3 ft alley), 9 seeds/foot, 108 seeds/row, 5 events (events 1-4 and a fifth event that was segregating); and 4 treatments as shown below in Table 4. In all, 240 plots were planted at 6 locations (40 per location).
Four non-transgenic border rows were planted all around the trial using a known commercial line such as A3525. Optimum production and management practices known in the art were followed. Maximum pest control and disease control was practiced as needed to prevent confounding effects of dicamba applications. The field was irrigated as needed according to standard practices.
The treatments were: untreated (Untrt); 1 lb/A dicamba at planting followed by 1 lb/A dicamba at V3 growth stage (1×1); 2 lb/A dicamba at planting followed by 2 lb/A dicamba at V3 growth stage (2×2); and 1 lb/A dicamba at planting followed by 1 lb/A dicamba at V3 growth stage followed by 1 lb/A dicamba at R1 stage (1×1×1).

[4] = system: soybean plants transgenic for the DMO gene; conditions: DMO transgenic soybean sprayed at up to 2.5 lb/A; various times; RP-HPLC
Experimental: For whole plant assays, soybean plants transgenic for the DMO gene were treated with 14C dicamba by spraying the plants with a solution containing the 14C dicamba at a rate up to 2.5 lb/A. Leaf samples from the treated plants were collected at various times after treatment and analyzed for the DMO metabolites by RP-HPLC. The leaf tissue was homogenized with a spinning pestle, acidified, solids pelleted by centrifugation and an aliquot of the supernatant analyze by RP-HPLC equipped with a radiation detector.

[5] = system: transgenic soybean seeds containing the DMO gene; conditions: 22° C., 1 low, 2 moderate, 3 high, N=10
Experimental: Transgenic soybean seeds containing the DMO gene were germinated in the presence of 100 or 200 mM sodium chloride (NaCl, salt). […] A diglycoamine salt of dicamba (Clarity) was applied to 113.5 g samples of soy in a water based slurry that contained an agricultural dye. Slurry and dye rates were 8 and 0.5 fl oz/cwt. Aliquots of each dicamba solution were added to seeds contained in a glass jar and agitated. After uniform coverage was attained, seeds were placed on towels and allowed to dry. Non-DMO soybeans were treated at rates of 0, 0.5, 2.5, and 5.0 g ai/100 kg. DMO soybeans were treated with 0, 0.5 and 2.5 g ai/100 kg. Seed germination was scored DAT (2 days after treatment) or 5DAT (days after treatment) at 22° C. The germination rate was scored as 1—low, 2—moderate, 3—high for each treatment, N=10.

[6] = system: PR5; test: Induction of PR5 (northern blot) by dicamba or DCSA; assay type: in vivo, soybean; conditions: probe specific to PR5; procedures as for PR2
[7] = 200 mM NaCl, 0.5 g ai/100 kg dicamba seed treatment, 0.0 dicamba 1
[8] = 200 mM NaCl, 2.5 g ai/100 kg dicamba seed treatment, 0.0 dicamba 1

COc1c(Cl)ccc(Cl)c1C(=O)O [Dicamba, 3,6-dichloro-2-methoxybenzoic acid]
time of peak induction of PR2 ([1]; DMO soybean, dicamba 1 lb/Acre at Post-V3): 48 h
induction of PR2 at various time points ([1]; DMO soybean, dicamba 1 lb/Acre at Post-V3, 0-72 HAT, no induction in untreated plants): induction of PR2
induction of PR2 at various rates ([1]; two transgenic soybean lines, 0.25, 0.5 and 1 lb/Acre, 24 hrs after treatment, no induction in untreated or water only): induction of PR2
metabolism of radiolabeled dicamba ([2]; leaf strips of transgenic DMO gene containing soybean): metabolized to DCSA and other polar metabolites
metabolism of radiolabeled dicamba ([2]; leaf strips of wild-type soybean): not in the wild-type soybean plants
yield compared with unsprayed controls ([3]; DMO soybean, dicamba 1.5 lb ae/Acre Pre, Post or both, in 4/5 events and 13/15 treatments, 6 locations): an increase or equivalent yield to unsprayed controls
increase in seed yield ([3]; three DMO soybean events, dicamba treatments vs untreated, average of 15 locations): up to 4.6%
maturity of dicamba treated plants compared with untreated plant ([3]; transgenic soybean, agronomic and efficacy trials): no delay in maturity
metabolites of 14C dicamba in leaf samples [4]: DCSA is produced as a metabolite of dicamba
Germination rating 2DAT ([5]; 100 mM NaCl, 0.5 g ai/100 kg dicamba seed treatment, 0.0 dicamba 1): 2
Germination rating 5DAT ([5]; 100 mM NaCl, 0.5 g ai/100 kg dicamba seed treatment, 0.0 dicamba 2): 3
Germination rating 2DAT ([5]; 100 mM NaCl, 2.5 g ai/100 kg dicamba seed treatment, 0.0 dicamba 1): 2
Germination rating 5DAT ([5]; 100 mM NaCl, 2.5 g ai/100 kg dicamba seed treatment, 0.0 dicamba 2): 3
Germination rating 2DAT [5, 7]: 1.5
Germination rating 5DAT [5, 7]: 2
Germination rating 2DAT [5, 8]: 1.5
Germination rating 5DAT [5, 8]: 1
induction of PR5 [6]: Induction of PR5
